Measured values reported in patent publication US5621102A, “Process for preparing enantiomerically pure xanthine derivatives” (Cell Therapeutics, Inc., priority 1995, dated 1997).

Test system: hair follicles of nu/nu mice
Experiment: nude mouse hair studies, topical application
Format: in vivo
Description: This example illustrates nude mouse hair studies involving topical application of CT1501R. Six to eight week old, female, nu/nu mice from Charles River Laboratories were housed at Biosupport Research Support Services (Seattle, Wash.) in autoclaved micro isolator units with hyperchlorinated autoclaved water, irradiated rodent chow and kept under a laminar flow hood. Caging was changed weekly, and water was changed twice weekly. The mice were acclimated for 5 days before beginning each study.
The first topical formulation was prepared by adding CT1501R to a heated hydrophilic ointment (USP) at a 1% concentration, and allowed to solidify.
Nude mice were painted twice daily for 16 days with the first topical formulation of CT1501R on the left flank and another compound in the same base on the right flank with sterile applicators. Mice were handled under the laminar flow hood with applicator wearing face mask and sterile gloves. After 16 days, one mouse was sacrificed by cervical dislocation and skin biopsies were taken of the treated areas of the shoulder/flank and from the non-treated area of the dorsal pelvis (rump). Specimens were placed in 10% buffered formalin solution. Biopsies were sent to a veterinary dermopathologist for histopathology. Six weeks following treatment, a second mouse was euthanatized and biopsied the same as the first. Samples were sent for histopathology.
In a second experiment, topical application of CT1501R was performed along with a commercial topical minoxidil preparation (Rogaine®, Upjohn) that is approved for a hair growth indication. Five to six week old, female, nu/nu mice from Bantin and Kingman Universal were housed at Biosupport Research Support Services (Seattle, Wash.) in autoclaved micro isolator units with hyper chlorinated autoclaved water, irradiated rodent chow and kept under a laminar flow hood. Caging was changed weekly, and water was changed twice weekly. Mice were acclimated for 7 days before beginning study, […]

C[C@@H](O)CCCCn1c(=O)c2c(ncn2C)n(C)c1=O [CT1501R, (R)-1-(5-hydroxyhexyl)-3,7-dimethylxanthine]
hair follicles, histopathology of treated vs non treated skin sections (first experiment, 1% in hydrophilic ointment, twice daily for 16 days): significantly more normal appearing hair follicles than the non treated sections | hair follicles, subjective histopathological examination (second experiment, 60% ETOH, 10% water, 30% PEG base, twice daily, 34 days): greatest concentration of hair folicles
